Results as given in patent US8138188B2, “Melanocortin type 4 receptor agonist piperidinoylpyrrolidines” (Pfizer Inc., priority 2006, dated 2012).
pKi: −log10 of the molar value.

Columns and labels:
[1] = target: T1, MC4 receptor (MC4R) (Homo sapiens, UniProt P32245); experiment: Nle4, D-Phe7-α-MSH inhibition at the MC4 receptor (SPA competition binding vs [125I] Nle4, D-Phe7-α-MSH); conditions: vs 0.06 nM [125I] Nle4, D-Phe7-α-MSH, CHO-CRE MC4R cell membranes
T1 construct: expressed in transfected cells; host or cells: CHO-CRE MC4R cells (membranes)
T1 sequence (P32245 whole entry): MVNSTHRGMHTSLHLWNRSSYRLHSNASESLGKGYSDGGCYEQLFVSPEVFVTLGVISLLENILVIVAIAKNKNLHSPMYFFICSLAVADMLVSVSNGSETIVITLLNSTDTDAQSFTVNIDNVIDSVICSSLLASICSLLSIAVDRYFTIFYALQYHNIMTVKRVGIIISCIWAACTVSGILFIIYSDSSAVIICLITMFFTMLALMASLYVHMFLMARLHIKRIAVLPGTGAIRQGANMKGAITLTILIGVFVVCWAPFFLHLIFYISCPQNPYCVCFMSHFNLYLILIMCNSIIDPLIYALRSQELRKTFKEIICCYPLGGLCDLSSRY
From the text: Nle4, D-Phe7-α-MSH Inhibition at the MC4 Receptor
Nle4, Nle4, D-Phe7-α-MSH is a stable analogue of melanocyte-stimulating hormone (MSH), which is an agonist at the MC4 receptor (MC4R). Compounds can be evaluated for their ability to inhibit Nle4, Nle4, D-Phe7-α-MSH binding to membranes from cells expressing the MC4R using a competition binding assay versus [^125I] Nle4, D-Phe7-α-MSH.
Cells expressing the MC4R were subject to homogenisation and the membrane fragment isolated by differential centrifugation. CHO-CRE MC4R cell membranes were coupled to PVT-PEI-WGA SPA Beads type A for 2 hours, spun at 1000 RPM for 5 mins and suspended to a concentration of 300 ug bead/ml (0.15 ug membrane, 15 ug bead per well). Bead/membrane mix was incubated with 0.06 nM [^125I] Nle4, D-Phe7-α-MSH and 11 half-log concentrations of competitor ligand, in duplicate, in a total volume of 50 μl buffer per well (25 mM HEPES, 1 mM MgCl2, 2.5 mM CaCl2, 1% Pluronic F68, 1 complete EDTA protease inhibitor tablet/50 ml pH7). Non-specific binding was determined by the inclusion of 100 nM SHU9119. The reaction was initiated by the addition of bead/membranes and plates were incubated at room temperature for 12 hours (the first hour on a plate shaker), after which the amount of radioactivity present was determined using a Wallac plate counter. Ki values were determined by data analysis using appropriate software.

[2] = In vitro metabolism rate determination, rat liver microsome (RLM) assay; format: in vitro ADME; conditions: rat liver microsomes, substrate 1 μM; read-out: RLM (intrinsic clearance)
From the text: In vitro Metabolism Rate Determination (Human Liver Microsome (HLM); Rat Liver Microsome (RLM) Assay)
Many drugs are metabolised by the cytochrome P450 mono-oxygenase system. This enzyme is found in high concentrations in the liver and is bound to the endoplasmic reticulum of the hepatocyte. The enzyme system can be obtained in semi-purified state by the preparation of the hepatic microsomal fractions. Determining a compound's in vitro half-life in such a system provides a useful indicator of metabolic stability.
Methodology For In Vitro Rate Determination Using Hepatic & Supermix Microsomes
The method outlined below is for a total incubation volume of 1.5 ml.
1. The following mixture is prepared in a test tube:
2. Defrost microsomes at room temperature and add sufficient microsomes to give a final concentration of 0.5 nmol cytochrome P450/ml of incubation e.g. for a 1.5 ml incubation, the volume of microsomes to be added is:
[formula] 3. Add sufficient MilliQ water to give a total incubation volume of 1.425 ml. 4. Remove 237.5 μl of incubation mix and place in test tube for PNA positive control. Add 2.5 μl of PNA solution, whirlimix, and put tube into a rack in the thermostatically controlled shaking water bath 5. Remove 100 μl for no substrate control and dispense in test tube. Place test tube in a rack in the thermostatically controlled shaking water bath. 6. Add substrate to the incubation. The substrate should be at an initial concentration of 1 μM. The volume of substrate required in the remaining 1.162.5 ml incubation is calculated as follows:
[formula] • N.B. The volume of organic solvent added should not exceed 0.1% of the total incubation volume. 7. Remove 100 μl of incubation mix into test tube for no cofactor control. Whirlimix and put into a rack in the thermostatically controlled shaking water bath. 8. Pre-incubate the tube containing the incubation mix, also positive control and no cofactor tubes in the thermostatically controlled shaking water bath set at 37° C. for approx 5 min. 9. Add NADP to initiate reaction (75 μl to each 1.162.5 ml incubation mix, 12.5 μl to positive control tube and 5 μl to no substrate tube) and take first time point immediately. The PNA positive control, no cofactor control and no substrate tubes are incubated for the total incubation time. 10. Remove 100 μl aliquots up to 9 different sampling points from 0 to 60 min (usually 0, 3, 5, 10, 15, 20, 30, 45 & 60 min) and terminate reaction. Longer incubation times can be used, but, after 120 min the microsomes deteriorate. The reaction may be terminated by addition of organic solvent, acid or base. At the end of the incubation process the no cofactor and no substrate controls in a similar manner i.e. terminate with the same reagent. 11. PNA Positive Control Procedure: • After the final sample has been taken, remove the positive control and add 1 ml 20% TCA to this tube. Also prepare a tube containing 250 μl of a PNP standard at 50 μM, and add 1 ml 20% TCA. Whirlimix both tubes and leave for approx 5 min to allow the protein to precipitate. • Centrifuge both tubes for approx 5 min in an instrument set at 3500 rpm. Remove 1 ml of supernatant and place into clean test tubes, discard the remainder. • Add 1 ml 10M NaOH to the supernatant, whirlimix, and leave to stand for approx min. Blank spectrophotometer with distilled water at 400 nm then measure absorbance of the PNP standard against distilled water. The microsomal 4-nitroanisole O-demethylase activity is calculated as follows: Calculation of Results
[formula] • The activity value from the incubation MUST be equal to or greater than 85% of the mean value of the batch used for the incubation to be valid. If this criteria is not met, then the incubation must be repeated. 11. Analyse samples (including no cofactor and no substrate control) by a specific assay for the substrate to determine the disappearance kinetics. Analysis Of Data […]

| pKi [1] | microsomal CLint at 1 μM [2] | Structure (SMILES) |
| --- | --- | --- |
| 6.56 | 42 µL/min/mg | C[C@@H]1CN(C(=O)[C@@H]2CN(c3ccc(=O)n(C)n3)C[C@H]2c2ccc(Cl)cn2)C[C@H](C)[C@@]1(O)c1ccc(Cl)cn1 [Example 10] |
| 6.95 | > 510 µL/min/mg | C[C@@H]1CN(C(=O)[C@@H]2CN(c3ccc(=O)n(C)n3)C[C@H]2c2ccc(Cl)cn2)C[C@H](C)[C@@]1(O)C1CCCCC1 [Example 17] |
| 7.07 | 21 µL/min/mg | CC1CN(C(=O)C2CN(c3ccc(=O)n(C)n3)CC2c2ccc(Cl)cn2)CC(C)C1(O)c1ccc(F)c(F)c1 (centres unmarked) [Example 19] |
| 6.60 | 51.5 µL/min/mg | COc1ccc(C2(O)C(C)CN(C(=O)C3CN(c4ccc(=O)n(C)n4)CC3c3ccc(Cl)cn3)CC2C)cc1 (centres unmarked) [Example 20] |
| 7.18 | < 8.5 µL/min/mg | CC1CN(C(=O)C2CN(c3ccc(=O)n(C)n3)CC2c2ccc(Cl)cn2)CC(C)C1(O)c1ccc(Cl)cc1 (centres unmarked) [Example 23] |
| 7.96 | 172 µL/min/mg | CC1CN(C(=O)C2CN(c3cncc(F)c3)CC2c2ccc(Cl)cn2)CC(C)C1(O)c1ccc(F)cc1 (centres unmarked) [Example 25] |
| 6.82 | < 8.5 µL/min/mg | C[C@@H]1CN(C(=O)[C@@H]2CN(c3ccc(C#N)nn3)C[C@H]2c2ccc(F)cn2)C[C@H](C)[C@@]1(O)c1ccc(Cl)cc1 [Example 32] |
